Structures can show the parent of a compound that is named as a salt. Where two headings read alike, the source gives them in different places.
Assays:
Test in all cases: AK assay 384-well format, Prestwick library screening
[1] = system: E. faecium; assay type: cell-based, Enterococcus faecium; conditions: for fold induction at 50 µM: Enterococcus faecium, 3 h
[2] = system: S. aureus strain USA300-0114; assay type: cell-based, Staphylococcus aureus; conditions: for fold induction at 50 µM: Staphylococcus aureus, USA300, 3 h
[3] = system: K. pneumoniae; assay type: cell-based, Klebsiella pneumoniae; conditions: for fold induction at 50 µM: Klebsiella pneumoniae, 3 h
[4] = system: A. baumannii strain 98-37-09; assay type: cell-based, Acinetobacter baumannii; conditions: for fold induction at 50 µM: Acinetobacter baumannii, 983709, 3 h
[5] = system: P. aeruginosa; assay type: cell-based, Pseudomonas aeruginosa; conditions: for fold induction at 50 µM: Pseudomonas aeruginosa, 3 h
[6] = system: E. cloacae; assay type: cell-based, Enterobacter cloacae; conditions: for fold induction at 50 µM: Enterobacter cloacae, 3 h
[7] = system: E. coli; assay type: cell-based, Escherichia coli; conditions: 50 μM final drug concentration; for fold induction at 50 µM: Escherichia coli, 3 h
[8] = 50 μM final drug concentration, cutoff for positive-scoring molecules 3-fold increase, read-out: AK-based Prestwick Library Screening Results, E. faecium (fold increase in extracellular AK activity)
[9] = 50 μM final drug concentration, cutoff for positive-scoring molecules 3-fold increase, read-out: AK-based Prestwick Library Screening Results, S. aureus (fold increase in extracellular AK activity)
[10] = 50 μM final drug concentration, cutoff for positive-scoring molecules 3-fold increase, read-out: AK-based Prestwick Library Screening Results, K. pneumoniae (fold increase in extracellular AK activity)
[11] = 50 μM final drug concentration, cutoff for positive-scoring molecules 3-fold increase, read-out: AK-based Prestwick Library Screening Results, A. baumannii (fold increase in extracellular AK activity)
[12] = 50 μM final drug concentration, cutoff for positive-scoring molecules 3-fold increase, read-out: AK-based Prestwick Library Screening Results, P. aeruginosa (fold increase in extracellular AK activity)
[13] = 50 μM final drug concentration, cutoff for positive-scoring molecules 3-fold increase, read-out: AK-based Prestwick Library Screening Results, E. cloacae (fold increase in extracellular AK activity)
[14] = planktonic E. faecium, 50 μM final drug concentration, cutoff for positive-scoring molecules 3-fold increase, read-out: AK-based Prestwick Library Screening Results, E. faecium (increase in extracellular AK activity)
[15] = planktonic S. aureus, 50 μM final drug concentration, cutoff for positive-scoring molecules 3-fold increase, read-out: AK-based Prestwick Library Screening Results, S. aureus (increase in extracellular AK activity)
[16] = planktonic K. pneumoniae, 50 μM final drug concentration, cutoff for positive-scoring molecules 3-fold increase, read-out: AK-based Prestwick Library Screening Results, K. pneumoniae (increase in extracellular AK activity)
[17] = planktonic A. baumannii, 50 μM final drug concentration, cutoff for positive-scoring molecules 3-fold increase, read-out: AK-based Prestwick Library Screening Results, A. baumannii (increase in extracellular AK activity)
[18] = planktonic P. aeruginosa, 50 μM final drug concentration, cutoff for positive-scoring molecules 3-fold increase, read-out: AK-based Prestwick Library Screening Results, P. aeruginosa (increase in extracellular AK activity)
[19] = planktonic E. cloacae, 50 μM final drug concentration, cutoff for positive-scoring molecules 3-fold increase, read-out: AK-based Prestwick Library Screening Results, E. cloacae (increase in extracellular AK activity)
[20] = planktonic E. coli, cutoff for positive-scoring molecules 3-fold increase, read-out: AK-based Prestwick Library Screening Results, E. coli (increase in extracellular AK activity)
[21] = 50 μM final drug concentration, planktonic, cutoff for positive-scoring molecules 3-fold increase

SMILES: CNC(C)CCC=C(C)C.CNC(C)CCC=C(C)C.O=C(O)[C@@H](O)[C@H](O)[C@H](O)[C@@H](O)C(=O)O [Isometheptene mutate]
- AK-based Prestwick library screening result, E. faecium (fold increase in extracellular AK activity) [1]: 1.0
- AK-based Prestwick library screening result, S. aureus (fold increase in extracellular AK activity) [2]: 1.2
- AK-based Prestwick library screening result, K. pneumoniae (fold increase in extracellular AK activity) [3]: 1.1
- AK-based Prestwick library screening result, A. baumannii (fold increase in extracellular AK activity) [4]: 1.5
- AK-based Prestwick library screening result, P. aeruginosa (fold increase in extracellular AK activity) [5]: 1.1
- AK-based Prestwick library screening result, E. cloacae (fold increase in extracellular AK activity) [6]: 1.2
- AK-based Prestwick library screening result, E. coli (fold increase in extracellular AK activity) ([7]; planktonic E. coli, […]): 1.2

SMILES: CO[C@H]1C[C@H](O[C@H]2[C@H](C)[C@@H](O[C@@H]3O[C@H](C)C[C@H](N(C)C)[C@H]3OC(C)=O)[C@@H](C)C[C@@]3(CO3)C(=O)[C@H](C)[C@@H](OC(C)=O)[C@@H](C)[C@@H](C)OC(=O)[C@@H]2C)O[C@@H](C)[C@@H]1OC(C)=O [Troleandomycin]
- fold induction at 50 µM ([1]; 50 μM final drug concentration, 384-well format, cutoff for positive-scoring molecules 3-fold increase, read-out: AK-based Prestwick Library Screening Results, E. faecium (increase in extracellular AK activity)): 1
- fold induction at 50 µM ([2]; 50 μM final drug concentration, 384-well format, cutoff for positive-scoring molecules 3-fold increase, read-out: AK-based Prestwick Library Screening Results, S. aureus (increase in extracellular AK activity)): 6.5
- fold induction at 50 µM ([3]; 50 μM final drug concentration, 384-well format, cutoff for positive-scoring molecules 3-fold increase, read-out: AK-based Prestwick Library Screening Results, K. pneumoniae (increase in extracellular AK activity)): 0.6
- fold induction at 50 µM ([4]; 50 μM final drug concentration, 384-well format, cutoff for positive-scoring molecules 3-fold increase, read-out: AK-based Prestwick Library Screening Results, A. baumannii (increase in extracellular AK activity)): 0.8
- fold induction at 50 µM ([5]; 50 μM final drug concentration, 384-well format, cutoff for positive-scoring molecules 3-fold increase, read-out: AK-based Prestwick Library Screening Results, P. aeruginosa (increase in extracellular AK activity)): 0.7
- fold induction at 50 µM ([6]; 50 μM final drug concentration, 384-well format, cutoff for positive-scoring molecules 3-fold increase, read-out: AK-based Prestwick Library Screening Results, E. cloacae (increase in extracellular AK activity)): 1.1
- fold induction at 50 µM ([7]; 384-well format, cutoff for positive-scoring molecules 3-fold increase, read-out: AK-based Prestwick Library Screening Results, E. coli (increase in extracellular AK activity)): 0.9

SMILES: S=C(NC1CCCCC1)N1CCC(c2cnc[nH]2)CC1 [Thioperamide maleate]
- fold induction at 50 µM [1, 8]: 1
- fold induction at 50 µM [2, 9]: 1.1
- fold induction at 50 µM [3, 10]: 1
- fold induction at 50 µM [4, 11]: 1
- fold induction at 50 µM [5, 12]: 1.3
- fold induction at 50 µM [6, 13]: 1.6
- fold induction at 50 µM ([7]; […], read-out: AK-based Prestwick Library Screening Results, E. coli (fold increase in extracellular AK activity)): 1.2

SMILES: NS(=O)(=O)c1cc(C2(O)NC(=O)c3ccccc32)ccc1Cl (stereo not drawn) [Chlorthalidone]
- fold induction at 50 µM [1, 14]: 0.9
- fold induction at 50 µM [2, 15]: 0.7
- fold induction at 50 µM [3, 16]: 0.6
- fold induction at 50 µM [4, 17]: 0.8
- fold induction at 50 µM [5, 18]: 0.8
- fold induction at 50 µM [6, 19]: 1
- fold induction at 50 µM [7, 20]: 0.9

SMILES: CN1CCC2=C[C@H](O)[C@H]3OC(=O)c4cc5c(cc4[C@H]3[C@@H]21)OCO5 [Hippeastrine hydrobromide]
- AK-based Prestwick Library Screening Results, E. faecium (fold increase in extracellular AK activity) [1, 21]: 0.9
- AK-based Prestwick Library Screening Results, S. aureus (fold increase in extracellular AK activity) [2, 21]: 0.7
- AK-based Prestwick Library Screening Results, K. pneumoniae (fold increase in extracellular AK activity) [3, 21]: 0.6
- AK-based Prestwick Library Screening Results, A. baumannii (fold increase in extracellular AK activity) [4, 21]: 0.8
- AK-based Prestwick Library Screening Results, P. aeruginosa (fold increase in extracellular AK activity) [5, 21]: 0.9
- AK-based Prestwick Library Screening Results, E. cloacae (fold increase in extracellular AK activity) [6, 21]: 1.4
- AK-based Prestwick Library Screening Results, E. coli (fold increase in extracellular AK activity) ([7]; planktonic, cutoff for positive-scoring molecules 3-fold increase): 0.9

SMILES: N#Cc1ccc(C(c2ccc(C#N)cc2)n2cncn2)cc1 [Letrozole]
- fold induction at 50 µM ([1]; planktonic E. faecium, 50 μM final drug concentration, positive cutoff 3-fold increase, read-out: AK-based Prestwick library screening result, E. faecium (fold increase in extracellular AK activity)): 1
- fold induction at 50 µM ([2]; planktonic S. aureus, 50 μM final drug concentration, positive cutoff 3-fold increase, read-out: AK-based Prestwick library screening result, S. aureus (fold increase in extracellular AK activity)): 1.2
- fold induction at 50 µM ([3]; planktonic K. pneumoniae, 50 μM final drug concentration, positive cutoff 3-fold increase, read-out: AK-based Prestwick library screening result, K. pneumoniae (fold increase in extracellular AK activity)): 1.1
- fold induction at 50 µM ([4]; planktonic A. baumannii, 50 μM final drug concentration, positive cutoff 3-fold increase, read-out: AK-based Prestwick library screening result, A. baumannii (fold increase in extracellular AK activity)): 1.3
- fold induction at 50 µM ([5]; planktonic P. aeruginosa, 50 μM final drug concentration, positive cutoff 3-fold increase, read-out: AK-based Prestwick library screening result, P. aeruginosa (fold increase in extracellular AK activity)): 1
- fold induction at 50 µM ([6]; planktonic E. cloacae, 50 μM final drug concentration, positive cutoff 3-fold increase, read-out: AK-based Prestwick library screening result, E. cloacae (fold increase in extracellular AK activity)): 1.4
- fold induction at 50 µM ([7]; planktonic E. coli, positive cutoff 3-fold increase, read-out: AK-based Prestwick library screening result, E. coli (fold increase in extracellular AK activity)): 1.2

SMILES: CCCSc1ccc2nc(NC(=O)OC)[nH]c2c1 [Albendazole]
- fold induction at 50 µM ([1]; 50 μM final drug concentration, 384-well format, […], read-out: AK-based Prestwick Library Screening Results, E. faecium (increase in extracellular AK activity)): 0.5
- fold induction at 50 µM ([2]; 50 μM final drug concentration, 384-well format, […], read-out: AK-based Prestwick Library Screening Results, S. aureus (increase in extracellular AK activity)): 0.2
- fold induction at 50 µM ([3]; 50 μM final drug concentration, 384-well format, […], read-out: AK-based Prestwick Library Screening Results, K. pneumoniae (increase in extracellular AK activity)): 0.3
- fold induction at 50 µM ([4]; 50 μM final drug concentration, 384-well format, […], read-out: AK-based Prestwick Library Screening Results, A. baumannii (increase in extracellular AK activity)): 0.3
- fold induction at 50 µM ([5]; 50 μM final drug concentration, 384-well format, […], read-out: AK-based Prestwick Library Screening Results, P. aeruginosa (increase in extracellular AK activity)): 0.3
- fold induction at 50 µM ([6]; read-out: AK-based Prestwick Library Screening Results, E. cloacae (increase in extracellular AK activity)): 0.4
- fold induction at 50 µM ([7]; 384-well format, […], read-out: AK-based Prestwick Library Screening Results, E. coli (increase in extracellular AK activity)): 0.3

SMILES: O=c1[nH]c2ccccc2n1CCCN1CCC(n2c(=O)[nH]c3cc(Cl)ccc32)CC1 [Domperidone]
- fold induction at 50 µM [1, 14]: 0.9
- fold induction at 50 µM [2, 15]: 0.8
- fold induction at 50 µM [3, 16]: 0.6
- fold induction at 50 µM [4, 17]: 0.7
- fold induction at 50 µM [5, 18]: 0.6
- fold induction at 50 µM [6, 19]: 0.8
- fold induction at 50 µM [7, 20]: 0.6

SMILES: CCn1nc(C(=O)O)c(=O)c2cc3c(cc21)OCO3 [Cinoxacin]
- fold induction at 50 µM [1, 8]: 1.1
- fold induction at 50 µM [2, 9]: 1.3
- fold induction at 50 µM [3, 10]: 2.1
- fold induction at 50 µM [4, 11]: 1.3
- fold induction at 50 µM [5, 12]: 1.2
- fold induction at 50 µM [6, 13]: 1.4
- fold induction at 50 µM ([7]; cutoff for positive-scoring molecules 3-fold increase, read-out: AK-based Prestwick Library Screening Results, E. coli (fold increase in extracellular AK activity)): 10.3
